Reference: US11040026B2, “Muscarinic M1 receptor positive allosteric modulators” (SUVEN LIFE SCIENCES LIMITED, priority 2016, dated 2021)
Counter-ions that a name gives are not always drawn. Each block holds one compound with its values, some of them ahead of it.

What was measured:
[1] = Rodent brain penetration study; type: in vivo, Male Wistar rats; conditions: male, Wistar, brain and plasma, po; rat, 3 mg/kg, p.o., brain-plasma ratio; read-out: Single dose Rat Brain Penetration (Cb/Cp) at 3 mg/kg, p.o.
Procedure: Rodent Brain Penetration Study
Male Wistar rats (260±40 grams) were used as experimental animals. Three animals were housed in each cage. Animals were given water and food ad libitum throughout the experiment and maintained on a 12 hours light/dark cycle.
Brain penetration was determined in discrete manner in rats. One day prior to dosing day, male Wistar rats were acclimatized and randomly grouped according to their weight. At each time point (0.50, 1 and 2 hours) n=3 animals were used.
The test compounds were suitably preformulated and administered orally at (free base equivalent) 3 mg/kg. Blood samples were removed via cardiac puncture by using isoflurane anesthesia. The animals were sacrificed to collect brain tissue. Plasma was separated and brain samples were homogenized and stored frozen at −20° C. until analysis. The concentrations of the test compounds in plasma and brain were determined using LC-MS/MS method.
The test compounds were quantified in plasma and brain homogenate by qualified LC-MS/MS method using suitable extraction technique. The test compounds were quantified in the calibration range of 1-500 ng/mL in plasma and brain homogenate. Study samples were analyzed using calibration samples in the batch and quality control samples spread across the batch. Extent of brain-plasma ratio (Cb/Cp) was calculated

[2] = Rodent pharmacokinetic study; type: in vivo, Male Wistar rats; conditions: rat; for AUC(0-t) / clearance / half-life / Cmax: male, Wistar, plasma; for F: oral (gavage) 3 mg/kg vs intravenous 1 mg/kg
Procedure: Rodent Pharmacokinetic Study
Male Wistar rats (260±50 grams) were used as experimental animals. Animals were housed individually in polypropylene cage. Two days prior to study, male Wistar rats were anesthetized with isoflurane for surgical placement of jugular vein catheter. Rats were randomly divided for oral (3 mg/kg) and intravenous (1 mg/kg) dosing (n=3/group) and fasted overnight before oral dosing (p.o.). However, rats allocated to intravenous dosing food and water was provided ad libitum.
At pre-determined point, blood was collected through jugular vein and replenished with an equivalent volume of normal saline. Collected blood was transferred into a labeled eppendorf tube containing 10 μL of heparin as an anticoagulant. Typically blood samples were collected at following time points: 0.08, 0.25, 0.5, 1, 2, 4, 6, 8, and 24 hours post dose. Blood was centrifuged at 4000 rpm for 10 minutes. Plasma was separated and stored frozen at −80° C. until analysis. The concentrations of the test compounds were quantified in plasma by qualified LC-MS/MS method using suitable extraction technique. The test compounds were quantified in the calibration range around 1-1000 ng/mL in plasma. Study samples were analyzed using calibration samples in the batch and quality control samples spread across the batch.
Pharmacokinetic parameters Cmax, AUCt, T1/2, Clearance and Bioavailability (F) were calculated by non-compartmental model using standard non-compartmental model by using Phoenix WinNonlin 6.0.4 version Software package.

muscarinic M1 receptor = target: T1, muscarinic M1 receptor (Homo sapiens, UniProt P11229); assay: Allosteric potency EC50 for muscarinic M1 receptor (CHO pCRE-Luc reporter assay); type: cell-based; conditions: in presence of EC20 of acetylcholine; CHO cells, luciferase reporter, 4 hours
T1 sequence (P11229 1-460): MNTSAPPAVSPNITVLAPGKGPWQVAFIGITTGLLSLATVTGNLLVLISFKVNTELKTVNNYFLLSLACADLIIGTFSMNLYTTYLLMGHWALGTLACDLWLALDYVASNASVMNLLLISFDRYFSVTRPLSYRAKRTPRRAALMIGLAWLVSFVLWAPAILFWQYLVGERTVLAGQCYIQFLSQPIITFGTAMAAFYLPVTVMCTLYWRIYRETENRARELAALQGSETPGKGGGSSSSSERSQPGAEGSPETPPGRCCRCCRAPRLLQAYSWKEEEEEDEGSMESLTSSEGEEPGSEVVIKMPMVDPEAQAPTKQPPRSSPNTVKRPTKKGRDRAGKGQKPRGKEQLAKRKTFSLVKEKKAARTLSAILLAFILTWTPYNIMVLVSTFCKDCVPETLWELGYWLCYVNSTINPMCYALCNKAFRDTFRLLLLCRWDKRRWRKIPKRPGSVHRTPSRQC
Procedure: Determination of Allosteric Potency EC50 Values for Muscarinic M1 Receptor:
A stable CHO cell line expressing recombinant human Muscarinic M1 receptor and pCRE-Luc reporter system was used for cell-based assay. The assay offers a non-radioactive based approach to determine binding of a compound to GPCRs. In this specific assay, the level of intracellular cyclic AMP which is modulated by activation or inhibition of the receptor is measured. The recombinant cells harbor luciferase reporter gene under the control of cyclic AMP response element.
The above cells were grown in 96 well clear bottom white plates in Hams F12 medium containing 10% fetal bovine serum (FBS). Prior to the addition of compounds or standard agonist, cells were serum starved overnight. Increasing concentrations of test compounds were added along with EC20 of acetylcholine in OptiMEM medium to the cells. The incubation was continued at 37° C. in CO2 incubator for 4 hours. Medium was removed and cells were washed with phosphate buffered saline. The cells were lysed and luciferase activity was measured in a Luminometer. Luminescence units were plotted against the compound concentrations using Graphpad software. EC50 values of the compounds were defined as the concentration required in stimulating the luciferase activity by 50% in presence of EC20 of acetylcholine and the results are provided in table 1.

EC50 (muscarinic M1 receptor): 0.38 µM
Compound: CN1CCc2c(Cc3ccc(F)cc3)cc(C(=O)N[C@H]3CCCC[C@@H]3O)nc21 [Example 76, N-[(1S,2S)-2-Hydroxycyclohexyl]-4-(4-fluorobenzyl)-1-methyl-2,3-dihydro-1H-pyrrolo[2,3-b]pyridine-6-carboxamide]

EC50 (muscarinic M1 receptor): 0.018 µM
Compound: Cn1cc(-c2ccc(Cc3cc(C(=O)N[C@H]4CCCC[C@@H]4O)nc4c3CCNC4)cc2)cn1 [Example 90, N-[(1S,2S)-2-Hydroxycyclohexyl]-4-[4-(1-methyl-1H-pyrazol-4-yl)-benzyl-5,6,7,8-tetrahydro[1,7]naphthyridine-2-carboxamide Hydrochloride]

EC50 (muscarinic M1 receptor): 0.231 µM
Compound: COc1ccc(Cc2cc(C(=O)N[C@H]3CCCC[C@@H]3O)nc3c2OCCO3)cc1 [Example 104, N-[(1S,2S)-2-Hydroxycyclohexyl]-8-(4-methoxybenzyl)-2,3-dihydro-[1,4]dioxino[2,3-b]pyridine-6-carboxamide]

EC50 (muscarinic M1 receptor): 0.014 µM
Compound: Cn1cc(-c2ccc(Cc3cc(C(=O)N[C@H]4CCCC[C@@H]4O)nc4c3OCCO4)cc2)cn1 [Example 106, N-[(1S,2S)-2-Hydroxycyclohexyl]-8-[4-(1-methyl-1H-pyrazol-4-yl)-benzyl]-2,3-dihydro-[1,4]dioxino[2,3-b]pyridine-6-carboxamide]

EC50 (muscarinic M1 receptor): 0.085 µM
Compound: CN1CCOc2c(Cc3ccc(-c4cnn(C)c4)cc3)cc(C(=O)N[C@H]3CCCC[C@@H]3O)nc21 [Example 122, N-[(1S,2S)-2-Hydroxycyclohexyl]-8-[4-(1-methyl-1H-pyrazol-4-yl)benzyl]-4-methyl-2H-pyrido[3,2-b][1,4]oxazine-6-carboxamide]

EC50 (muscarinic M1 receptor): 0.946 µM
Compound: COc1ccc(Cc2cc(C(=O)N[C@H]3CCCC[C@@H]3O)nc3c2OCCN3C)cc1 [Example 127, N-[(1S,2S)-2-Hydroxycyclohexyl]-8-(4-methoxybenzyl)-4-methyl-2H-pyrido[3,2-b][1,4]oxazine-6-carboxamide]

EC50 (muscarinic M1 receptor): 0.015 µM
Compound: CN1CCOc2c(Cc3ccc(-n4cccn4)cc3)cc(C(=O)N[C@H]3CCCC[C@@H]3O)nc21 [Example 129, N-[(1S,2S)-2-Hydroxycyclohexyl]-8-[4-pyrazol-1-ylbenzyl]-4-methyl-2H-pyrido[3,2-b][1,4]oxazine-6-carboxamide]

EC50 (muscarinic M1 receptor): 0.641 µM
Compound: Cn1ccc2nc(C(=O)N[C@H]3CCCC[C@@H]3O)cc(Cc3ccc(F)cc3)c21 [Example 137, N-[(1S,2S)-2-Hydroxycyclohexyl]-7-(4-fluorobenzyl)-1-methyl-1H-pyrrolo[3,2-b]pyridine-5-carboxamide]

More lines, now with the values behind:

Compound: Cn1ccc2c(Cc3ccc(F)cc3)cc(C(=O)N[C@@H]3COCC[C@@H]3O)nc21 (single isomer, unassigned; isomer-i) [Example 65, cis-N-(4-Hydroxytetrahydropyran-3-yl)-4-(4-fluorobenzyl)-1-methyl-1H-pyrrolo[2,3-b]pyridine-6-carboxamide (Isomer-I)]
Kp [1]: 0.32

Compound: CN1CCOc2c(Cc3ccc(F)cc3)cc(C(=O)N[C@@H]3CCOC[C@H]3O)nc21 (single isomer, unassigned; isomer-ii) [Example 124, trans-N-(3-Hydroxytetrahydropyran-4-yl)-8-(4-fluorobenzyl)-4-methyl-2H-pyrido[3,2-b][1,4]oxazine-6-carboxamide (Isomer-II)]
AUC(0-t) ([2]; intravenous (bolus), 1 mg/kg): 0.787 ± 0.13 µg·h/mL | clearance ([2]; intravenous (bolus), 1 mg/kg): 1.26 ± 0.18 L/h/kg | half-life ([2]; intravenous (bolus), 1 mg/kg): 1.1 ± 0.1 h | AUC(0-t) ([2]; oral (gavage), 3 mg/kg): 0.526 ± 0.126 µg·h/mL | Cmax ([2]; oral (gavage), 3 mg/kg): 0.306 ± 0.066 µg/mL | half-life ([2]; oral (gavage), 3 mg/kg): 0.5 h | F [2]: 22 ± 5% | Kp [1]: 0.52 ± 0.05

Compound: Cn1ccc2c(Cc3ccc(-c4cscn4)cc3)cc(C(=O)NCC(C)(C)O)nc21 [Example 24, N-(2-Hydroxy-2-methylpropyl)-4-[4-(thiazol-4-yl)benzyl]-1-methyl-1H-pyrrol[2,3-b]pyridine-6-carboxamide]
EC50 (muscarinic M1 receptor): 0.834 µM

Compound: Cn1ccc2c(Cc3cccc(F)c3)cc(C(=O)N[C@H]3CCCC[C@@H]3O)nc21 [Example 25, N-[(1S,2S)-2-Hydroxycyclohexyl]-4-(3-fluorobenzyl)-1-methyl-1H-pyrrolo[2,3-b]pyridine-6-carboxamide]
EC50 (muscarinic M1 receptor): 0.362 µM

Compound: Cn1ccc2c(Cc3ccc(-c4cscn4)cc3)cc(C(=O)NCC3(O)CCCC3)nc21 [Example 26, N-(1-Hydroxycyclopentylmethyl)-4-[4-(thiazol-4-yl)benzyl]-1-methyl-1H-pyrrolo[2,3-b]pyridine-6-carboxamide]
EC50 (muscarinic M1 receptor): 0.221 µM

Compound: Cn1ccc2c(Cc3cccnc3)cc(C(=O)N[C@H]3CCCC[C@@H]3O)nc21 [Example 27, N-[(1S,2S)-2-Hydroxycyclohexyl]-4-(pyridin-3-ylmethyl)-1-methyl-1H-pyrrolo[2,3-b]pyridine-6-carboxamide]
EC50 (muscarinic M1 receptor): 0.234 µM

Compound: CN1CCc2c(Cc3ccc(Cl)nc3)cc(C(=O)N[C@H]3CCCC[C@@H]3O)nc21 [Example 72, N-[(1S,2S)-2-Hydroxycyclohexyl]-4-(2-chloropyridin-5-ylmethyl)-1-methyl-2,3-dihydro-1H-pyrrolo[2,3-b]pyridine-6-carboxamide]
EC50 (muscarinic M1 receptor): 0.494 µM

Compound: CN1CCc2c(Cc3ccnc(F)c3)cc(C(=O)N[C@H]3CCCC[C@@H]3O)nc21 [Example 73, N-[(1S,2S)-2-Hydroxycyclohexyl]-4-(2-fluoropyridin-4-ylmethyl)-1-methyl-2,3-dihydro-1H-pyrrolo[2,3-b]pyridine-6-carboxamide]
EC50 (muscarinic M1 receptor): 0.786 µM | AUC(0-t) ([2]; intravenous (bolus), 1 mg/kg): 0.742 ± 0.04 µg·h/mL | clearance ([2]; intravenous (bolus), 1 mg/kg): 1.32 ± 0.06 L/h/kg | half-life ([2]; intravenous (bolus), 1 mg/kg): 1.1 ± 0.3 h | AUC(0-t) ([2]; oral (gavage), 3 mg/kg): 1.74 ± 0.296 µg·h/mL | Cmax ([2]; oral (gavage), 3 mg/kg): 1.1 ± 0.085 µg/mL | half-life ([2]; oral (gavage), 3 mg/kg): 1.2 ± 0.1 h | F [2]: 78 ± 13%

Compound: COc1ccc(Cc2cc(C(=O)N[C@H]3CCCC[C@@H]3O)nc3c2CCN3C)cc1 [Example 77, N-[(1S,2S)-2-Hydroxycyclohexyl]-4-(4-methoxybenzyl)-1-methyl-2,3-dihydro-1H-pyrrolo[2,3-b]pyridine-6-carboxamide]
EC50 (muscarinic M1 receptor): 0.342 µM

Compound: Cl.O=C(N[C@H]1CCCC[C@@H]1O)c1cc(Cc2ccc(F)cc2)c2c(n1)CNCC2 [Example 87, N-[(1S,2S)-2-Hydroxycyclohexyl]-4-(4-fluorobenzyl)-5,6,7,8-tetrahydro[1,7]naphthyridine-2-carboxamide Hydrochloride]
EC50 (muscarinic M1 receptor): 0.241 µM | AUC(0-t) ([2]; intravenous (bolus), 1 mg/kg): 0.224 ± 0.066 µg·h/mL | clearance ([2]; intravenous (bolus), 1 mg/kg): 4.74 ± 1.62 L/h/kg | half-life ([2]; intravenous (bolus), 1 mg/kg): 1.5 ± 0.1 h | AUC(0-t) ([2]; oral (gavage), 3 mg/kg): 0.219 ± 0.07 µg·h/mL | Cmax ([2]; oral (gavage), 3 mg/kg): 0.097 ± 0.039 µg/mL | half-life ([2]; oral (gavage), 3 mg/kg): 0.7 ± 0.3 h | F [2]: 32 ± 10% | Kp [1]: 0.15 ± 0.01
